Data on one compound can be found in patent publication US20090191253A2 (Creabilis Therapeutics S.P.A., priority 2005, published 2009).

Structures are written as SMILES.

What all share (format): biochemical
One assay addresses T1, ABL (Homo sapiens, UniProt P00519).
T1 construct: made in house; host or cells: baculovirus expression system
Briefly: Kinase inhibition profiling ABL (ELISA).

In the next assay the target is T2, ARG (Homo sapiens, UniProt P42684).
T2 construct: made in house; host or cells: baculovirus expression system
T2 sequence (P42684 2-1182): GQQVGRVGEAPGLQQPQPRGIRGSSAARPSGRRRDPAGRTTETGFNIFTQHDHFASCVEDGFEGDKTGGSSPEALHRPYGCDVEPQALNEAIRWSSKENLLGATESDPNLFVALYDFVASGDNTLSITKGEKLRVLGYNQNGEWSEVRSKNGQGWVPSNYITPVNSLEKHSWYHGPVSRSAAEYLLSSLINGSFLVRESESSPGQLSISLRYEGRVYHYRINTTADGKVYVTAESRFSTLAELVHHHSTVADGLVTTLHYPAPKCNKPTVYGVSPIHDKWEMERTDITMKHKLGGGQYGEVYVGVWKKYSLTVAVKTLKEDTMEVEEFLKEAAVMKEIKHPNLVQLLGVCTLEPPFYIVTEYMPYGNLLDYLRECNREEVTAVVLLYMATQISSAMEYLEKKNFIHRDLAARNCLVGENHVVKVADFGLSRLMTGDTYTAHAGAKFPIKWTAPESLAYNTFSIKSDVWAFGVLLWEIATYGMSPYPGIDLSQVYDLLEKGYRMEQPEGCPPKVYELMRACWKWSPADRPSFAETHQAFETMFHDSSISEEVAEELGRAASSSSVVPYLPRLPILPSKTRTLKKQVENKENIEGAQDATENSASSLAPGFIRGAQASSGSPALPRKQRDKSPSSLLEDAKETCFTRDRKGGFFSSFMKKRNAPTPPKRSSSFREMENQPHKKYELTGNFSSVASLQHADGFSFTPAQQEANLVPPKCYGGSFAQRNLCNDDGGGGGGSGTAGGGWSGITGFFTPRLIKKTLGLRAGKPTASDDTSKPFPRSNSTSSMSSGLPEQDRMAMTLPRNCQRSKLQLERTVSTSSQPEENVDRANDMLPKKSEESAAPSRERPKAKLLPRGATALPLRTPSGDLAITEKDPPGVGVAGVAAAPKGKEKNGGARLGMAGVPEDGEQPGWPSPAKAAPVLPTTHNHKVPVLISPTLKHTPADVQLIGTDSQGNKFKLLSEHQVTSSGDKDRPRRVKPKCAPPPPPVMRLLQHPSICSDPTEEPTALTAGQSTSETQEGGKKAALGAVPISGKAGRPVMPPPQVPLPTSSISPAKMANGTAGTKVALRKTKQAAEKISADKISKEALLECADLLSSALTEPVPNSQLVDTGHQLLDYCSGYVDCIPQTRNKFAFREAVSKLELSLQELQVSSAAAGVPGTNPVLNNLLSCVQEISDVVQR
Briefly: Kinase inhibition profiling ARG (ELISA). Note: ATP 5 µM. On the technique in general: In an ELISA, binding on a coated surface is turned into a signal by an enzyme label.

The target of the next assay is T3, MER (Homo sapiens, UniProt Q12866).
T3 construct: made in house; host or cells: baculovirus expression system
Kind of assay: Kinase inhibition profiling MER (ELISA).

The target of another assay is T4, HER2 (Homo sapiens, UniProt P04626).
T4 construct: Cytoplasmic domain of human HER2 [676-1255 amino; made in house; host or cells: baculovirus expression system
T4 sequence (P04626 676-1255): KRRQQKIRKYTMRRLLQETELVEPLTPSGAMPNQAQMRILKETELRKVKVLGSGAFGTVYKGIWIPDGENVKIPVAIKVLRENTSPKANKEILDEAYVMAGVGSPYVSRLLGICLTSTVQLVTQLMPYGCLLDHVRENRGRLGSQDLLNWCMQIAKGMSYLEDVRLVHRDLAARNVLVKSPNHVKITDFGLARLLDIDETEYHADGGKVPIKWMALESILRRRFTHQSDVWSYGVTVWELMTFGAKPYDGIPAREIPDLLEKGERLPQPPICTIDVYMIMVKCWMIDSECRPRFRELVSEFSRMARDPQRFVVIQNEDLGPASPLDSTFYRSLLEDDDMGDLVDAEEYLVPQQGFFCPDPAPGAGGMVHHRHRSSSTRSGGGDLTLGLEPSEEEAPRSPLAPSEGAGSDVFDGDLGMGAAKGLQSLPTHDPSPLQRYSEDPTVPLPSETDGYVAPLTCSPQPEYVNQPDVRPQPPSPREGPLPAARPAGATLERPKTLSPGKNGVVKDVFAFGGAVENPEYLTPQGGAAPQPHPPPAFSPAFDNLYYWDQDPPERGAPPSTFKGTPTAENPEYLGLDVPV
Kind of assay: Kinase inhibition profiling HER2 (ELISA). Note: ATP 5 µM.

In a further assay the target is T5, EphA2 (Homo sapiens, UniProt P29317).
T5 construct: made in house; host or cells: baculovirus expression system
T5 sequence (P29317 572-976): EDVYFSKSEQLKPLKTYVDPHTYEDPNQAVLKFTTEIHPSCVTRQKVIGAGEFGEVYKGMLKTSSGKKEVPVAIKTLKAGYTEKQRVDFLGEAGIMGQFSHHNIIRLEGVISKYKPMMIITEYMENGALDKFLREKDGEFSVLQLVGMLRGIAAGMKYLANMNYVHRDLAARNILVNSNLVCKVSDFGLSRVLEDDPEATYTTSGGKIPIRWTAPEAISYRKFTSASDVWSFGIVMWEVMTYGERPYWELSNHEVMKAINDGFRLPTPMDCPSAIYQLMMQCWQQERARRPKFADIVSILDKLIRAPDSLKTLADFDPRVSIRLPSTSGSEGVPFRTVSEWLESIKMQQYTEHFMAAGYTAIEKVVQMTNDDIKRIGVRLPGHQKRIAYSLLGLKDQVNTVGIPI
Briefly: Kinase inhibition profiling EphA2 (ELISA).

In the next assay the target is T6, EphB4 (Homo sapiens, UniProt P54760).
T6 construct: Cytoplasmic domain of human EphB4 [577-987 amino; made in house; host or cells: baculovirus expression system
T6 sequence (P54760 577-987): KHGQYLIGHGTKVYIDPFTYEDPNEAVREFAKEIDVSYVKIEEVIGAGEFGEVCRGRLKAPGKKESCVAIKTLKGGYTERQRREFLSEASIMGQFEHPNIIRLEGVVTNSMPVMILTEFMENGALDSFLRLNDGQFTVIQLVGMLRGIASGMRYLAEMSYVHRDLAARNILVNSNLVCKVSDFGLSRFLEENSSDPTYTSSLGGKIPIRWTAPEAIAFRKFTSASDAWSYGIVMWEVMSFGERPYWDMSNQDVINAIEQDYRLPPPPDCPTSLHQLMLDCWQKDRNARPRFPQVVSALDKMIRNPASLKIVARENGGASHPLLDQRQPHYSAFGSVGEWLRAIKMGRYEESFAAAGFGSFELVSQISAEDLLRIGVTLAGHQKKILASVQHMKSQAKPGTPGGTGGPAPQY
Kind of assay: Kinase inhibition profiling EphB4 (ELISA).

The target of another assay is T7, MET (Homo sapiens, UniProt P08581).
T7 construct: made in house; host or cells: baculovirus expression system
Kind of assay: Kinase inhibition profiling MET (ELISA). Note: ATP 20 µM.

The target in the next assay is T8, RON (Homo sapiens, UniProt Q04912).
T8 construct: Cytoplasmic domain of human RON [979-1400 amino; made in house; host or cells: baculovirus expression system
T8 sequence (Q04912 979-1400): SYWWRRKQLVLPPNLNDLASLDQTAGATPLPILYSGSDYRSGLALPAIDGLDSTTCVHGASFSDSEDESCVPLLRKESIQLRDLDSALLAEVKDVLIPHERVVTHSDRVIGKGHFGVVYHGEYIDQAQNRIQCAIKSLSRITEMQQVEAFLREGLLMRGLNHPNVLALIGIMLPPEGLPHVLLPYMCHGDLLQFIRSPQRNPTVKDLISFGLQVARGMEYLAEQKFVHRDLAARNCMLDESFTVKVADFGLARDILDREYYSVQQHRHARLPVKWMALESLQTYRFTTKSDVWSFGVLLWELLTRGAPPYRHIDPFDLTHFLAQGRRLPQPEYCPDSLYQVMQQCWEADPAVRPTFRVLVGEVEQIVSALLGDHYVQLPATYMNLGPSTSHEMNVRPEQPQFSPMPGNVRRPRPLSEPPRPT
Kind of assay: Kinase inhibition profiling RON (ELISA).

In a further assay the target is T9, KIT (Homo sapiens, UniProt P10721).
T9 construct: made in house; host or cells: baculovirus expression system
Kind of assay: Kinase inhibition profiling KIT (ELISA).

A further assay concerns the target T10, PDGFRβ (Homo sapiens, UniProt P09619).
T10 construct: Cytoplasmic domain of human PDGFRβ [557-1106 amino; made in house; host or cells: baculovirus expression system
Briefly: Kinase inhibition profiling PDGFRβ (ELISA).

The target in the next assay is T11, FGR (Homo sapiens, UniProt P09769).
T11 construct: His (N, cleaved yes); made in house; host or cells: baculovirus expression system
T11 sequence (P09769 whole entry): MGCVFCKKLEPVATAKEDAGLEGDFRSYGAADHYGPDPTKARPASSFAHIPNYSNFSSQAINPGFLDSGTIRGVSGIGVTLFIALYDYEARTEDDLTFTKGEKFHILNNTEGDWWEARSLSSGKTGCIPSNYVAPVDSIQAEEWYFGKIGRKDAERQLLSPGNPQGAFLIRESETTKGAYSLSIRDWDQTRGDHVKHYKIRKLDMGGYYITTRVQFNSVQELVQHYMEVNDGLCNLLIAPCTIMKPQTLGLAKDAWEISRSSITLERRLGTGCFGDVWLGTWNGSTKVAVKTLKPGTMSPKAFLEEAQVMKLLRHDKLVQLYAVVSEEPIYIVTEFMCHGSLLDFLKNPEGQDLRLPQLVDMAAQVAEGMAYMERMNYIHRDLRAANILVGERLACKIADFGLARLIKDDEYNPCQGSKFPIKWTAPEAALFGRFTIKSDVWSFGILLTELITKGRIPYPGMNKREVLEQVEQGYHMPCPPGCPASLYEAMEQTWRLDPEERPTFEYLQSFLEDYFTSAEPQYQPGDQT
Briefly: Kinase inhibition profiling FGR (ELISA). Note: ATP 5 µM.

Another assay has as its target T12, LYNa (Homo sapiens, UniProt P07948).
T12 construct: made in house; host or cells: baculovirus expression system
Briefly: Kinase inhibition profiling LYNa (ELISA).

Another assay has as its target T13, LYNb (Homo sapiens, UniProt P07948).
T13 construct: made in house; host or cells: baculovirus expression system
Briefly: Kinase inhibition profiling LYNb (ELISA).

The target in the next assay is T14, SRM (Homo sapiens, UniProt Q9H3Y6).
T14 construct: Kinase domain (KD) of human SRM [215-489 amino acids; made in house; host or cells: baculovirus expression system
T14 sequence (Q9H3Y6 215-488 limits assumed): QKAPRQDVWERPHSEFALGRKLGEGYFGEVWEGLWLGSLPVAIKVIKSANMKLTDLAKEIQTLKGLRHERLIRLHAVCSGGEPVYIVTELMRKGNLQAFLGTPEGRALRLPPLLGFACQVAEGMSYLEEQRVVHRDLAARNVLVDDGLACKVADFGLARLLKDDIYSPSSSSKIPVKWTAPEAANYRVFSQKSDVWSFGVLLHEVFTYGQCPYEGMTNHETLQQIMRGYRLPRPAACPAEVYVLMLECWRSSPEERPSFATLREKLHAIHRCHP
Briefly: Kinase inhibition profiling SRM (ELISA).

A further assay has as its target T15, CaMK4 (Homo sapiens, UniProt Q16566).
T15 construct: His (N); made in house; host or cells: baculovirus expression system
Kind of assay: Kinase inhibition profiling CaMK4 (IMAP).

The next assay has as its target T16, CHK2 (Homo sapiens, UniProt O96017).
T16 construct: His (N); made in house; host or cells: baculovirus expression system
Briefly: Kinase inhibition profiling CHK2 (IMAP).

A further assay has as its target T17, AurA (Homo sapiens, UniProt O14965).
T17 construct: GST (N); made in house; host or cells: baculovirus expression system
Kind of assay: Kinase inhibition profiling AurA (IMAP).

Another assay addresses T18, IRAK4 (Homo sapiens, UniProt Q9NWZ3).
T18 construct: Kinase domain (KD) of Human IRAK4 [172-460 amino; GST (N); made in house; host or cells: baculovirus expression system
Briefly: Kinase inhibition profiling IRAK4 (IMAP). Note: ATP 80 µM.

T12 sequence (P07948 whole entry): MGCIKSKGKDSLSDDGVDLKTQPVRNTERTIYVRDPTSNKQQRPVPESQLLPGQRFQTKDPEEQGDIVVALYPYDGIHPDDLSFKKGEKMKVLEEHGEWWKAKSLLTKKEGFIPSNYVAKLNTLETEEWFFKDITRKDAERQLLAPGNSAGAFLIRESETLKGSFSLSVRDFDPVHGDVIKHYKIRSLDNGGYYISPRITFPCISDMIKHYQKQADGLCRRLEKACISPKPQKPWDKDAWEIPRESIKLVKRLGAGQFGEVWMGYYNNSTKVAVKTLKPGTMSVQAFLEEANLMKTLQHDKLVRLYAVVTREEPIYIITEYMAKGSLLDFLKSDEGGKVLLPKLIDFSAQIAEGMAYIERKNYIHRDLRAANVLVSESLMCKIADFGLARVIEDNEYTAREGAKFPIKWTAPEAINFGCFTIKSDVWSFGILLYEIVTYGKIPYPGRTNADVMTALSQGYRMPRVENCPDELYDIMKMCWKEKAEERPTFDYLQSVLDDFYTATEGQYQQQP
T15 sequence (Q16566 whole entry): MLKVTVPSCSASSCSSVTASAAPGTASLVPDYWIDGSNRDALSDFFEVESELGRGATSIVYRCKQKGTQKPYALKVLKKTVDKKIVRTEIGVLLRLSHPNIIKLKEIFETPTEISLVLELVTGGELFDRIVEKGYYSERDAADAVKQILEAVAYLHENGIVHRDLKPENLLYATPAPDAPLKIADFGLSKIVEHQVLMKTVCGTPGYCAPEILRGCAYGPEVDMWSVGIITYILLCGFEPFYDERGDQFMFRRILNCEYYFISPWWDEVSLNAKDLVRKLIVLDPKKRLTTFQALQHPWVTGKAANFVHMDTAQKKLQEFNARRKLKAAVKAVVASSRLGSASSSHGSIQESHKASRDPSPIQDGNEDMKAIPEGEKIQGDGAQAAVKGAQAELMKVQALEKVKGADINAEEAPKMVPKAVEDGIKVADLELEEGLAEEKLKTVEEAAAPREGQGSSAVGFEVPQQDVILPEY
Experimental for ABL: (§1) Each test compound was weighed and dissolved in DMSO to make 1 mM stock solution. The stock solution was diluted with DMSO to achieve 20 μM. The compound solution was diluted with the assay buffer to achieve 0.8 μM.
Experimental for ARG: as §1
Experimental for AurA: as §1
Experimental for CHK2: as §1
Experimental for CaMK4: (§2) In particular, the target kinases were Tyrosine kinases and Serine/Threonine kinases.
as §1
Experimental for EphA2: as §1
Experimental for EphB4: as §1
Experimental for FGR: as §2, §1
Experimental for HER2: as §1
Experimental for IRAK4: as §1
Experimental for KIT: as §1
Experimental for LYNa: as §1
Experimental for LYNb: as §1
Experimental for MER: as §1
Experimental for MET: as §1
Experimental for PDGFRβ: as §1
Experimental for RON: as §1
Experimental for SRM: as §1

The term inhibition denotes the change of the read-out against control, counted positive when it falls. On to `COC(=O)[C@]1(O)CC2O[C@@]1(C)n1c3ccccc3c3c4c(c5c6ccccc6n2c5c31)C(=O)NC4` [K-252a], for which the inhibition at 0.2 µM on ABL was -14.2%; on ARG, 0.1%; against MER, 80.8%; against HER2, 7.7%; at EphA2 it was 8.9%; against EphB4 it was 13.3%. The inhibition at 0.2 µM against MET stood at 83.2%; at RON, 5.2%; against KIT, 87.3%; on PDGFRβ it was 98.1%; on FGR, 85.6%; at LYNa, 58.9%. Also, the inhibition at 0.2 µM on LYNb was 51.2%; on SRM it was 0.4%; against CaMK4 it was 0%; on CHK2, 93.9%; at AurA it was 91.9%; at IRAK4, 51.9%.
